Data from patent US10053465B2 (Incyte Corporation, priority 2015, dated 2018).

Legend:
Tyro3 = Tyro3 (Homo sapiens (Human), UniProt Q06418); assay: biochemical; details: read-out: Tyro3IC50
Protocol: (§1) 0.1 ul test compounds dissolved in DMSO were transferred from compound plates to white 384-well assay plates (Greiner [sequence] plates). […] The plate was protected from light and incubated at room temperature for 60 min.

Phospho-Axl = Phospho-Axl (Homo sapiens (Human), UniProt P30530); assay: biochemical; details: HTRF, 60 min room temperature;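 further: test system is recombinant Axl protein that was first autophosphorylated with ATP and MgCl2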
Protocol: Autophosphorylation of Axl was carried out by incubating the recombinant Axl protein (Life Technologies, PV4275) in buffer containing 50 mM Tris, pH7.5, 0.2 mg/ml Axl, 5 mM ATP, 20 mM MgCl2 and 2 mM DTT at room temperature for 1 hour.
as §1

c-Mer = c-Mer (Homo sapiens (Human), UniProt Q12866); details: read-out: c-Mer IC50; HTRF, 60 min room temperature
c-Mer, sequence (Q12866 21-999): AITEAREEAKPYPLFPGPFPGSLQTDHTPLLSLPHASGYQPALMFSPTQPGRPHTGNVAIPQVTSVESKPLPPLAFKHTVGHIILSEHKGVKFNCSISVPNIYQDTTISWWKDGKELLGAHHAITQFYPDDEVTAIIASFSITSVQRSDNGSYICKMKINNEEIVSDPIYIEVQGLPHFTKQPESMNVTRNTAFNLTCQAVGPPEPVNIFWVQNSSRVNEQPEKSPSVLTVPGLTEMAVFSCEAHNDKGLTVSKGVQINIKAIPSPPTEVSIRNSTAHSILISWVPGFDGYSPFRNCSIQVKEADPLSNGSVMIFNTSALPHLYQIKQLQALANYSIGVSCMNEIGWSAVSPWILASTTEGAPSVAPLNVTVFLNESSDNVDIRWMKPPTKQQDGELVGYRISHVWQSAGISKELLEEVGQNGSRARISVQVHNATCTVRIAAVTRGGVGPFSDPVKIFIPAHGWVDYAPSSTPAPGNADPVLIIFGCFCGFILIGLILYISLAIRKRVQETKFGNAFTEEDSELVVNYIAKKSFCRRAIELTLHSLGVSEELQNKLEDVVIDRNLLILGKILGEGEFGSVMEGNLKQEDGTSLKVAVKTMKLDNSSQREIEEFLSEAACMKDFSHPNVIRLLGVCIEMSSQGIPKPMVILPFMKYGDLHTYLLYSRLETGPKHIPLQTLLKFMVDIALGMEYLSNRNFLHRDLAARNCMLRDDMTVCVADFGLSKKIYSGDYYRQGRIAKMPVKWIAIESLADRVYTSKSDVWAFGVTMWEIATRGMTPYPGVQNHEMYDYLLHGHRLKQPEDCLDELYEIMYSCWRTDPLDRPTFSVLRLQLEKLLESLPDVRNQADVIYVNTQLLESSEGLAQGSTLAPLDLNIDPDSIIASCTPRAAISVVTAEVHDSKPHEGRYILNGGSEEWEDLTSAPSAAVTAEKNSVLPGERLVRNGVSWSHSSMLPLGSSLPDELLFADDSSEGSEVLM
Protocol: as §1

Tyro3, sequence (Q06418 41-890): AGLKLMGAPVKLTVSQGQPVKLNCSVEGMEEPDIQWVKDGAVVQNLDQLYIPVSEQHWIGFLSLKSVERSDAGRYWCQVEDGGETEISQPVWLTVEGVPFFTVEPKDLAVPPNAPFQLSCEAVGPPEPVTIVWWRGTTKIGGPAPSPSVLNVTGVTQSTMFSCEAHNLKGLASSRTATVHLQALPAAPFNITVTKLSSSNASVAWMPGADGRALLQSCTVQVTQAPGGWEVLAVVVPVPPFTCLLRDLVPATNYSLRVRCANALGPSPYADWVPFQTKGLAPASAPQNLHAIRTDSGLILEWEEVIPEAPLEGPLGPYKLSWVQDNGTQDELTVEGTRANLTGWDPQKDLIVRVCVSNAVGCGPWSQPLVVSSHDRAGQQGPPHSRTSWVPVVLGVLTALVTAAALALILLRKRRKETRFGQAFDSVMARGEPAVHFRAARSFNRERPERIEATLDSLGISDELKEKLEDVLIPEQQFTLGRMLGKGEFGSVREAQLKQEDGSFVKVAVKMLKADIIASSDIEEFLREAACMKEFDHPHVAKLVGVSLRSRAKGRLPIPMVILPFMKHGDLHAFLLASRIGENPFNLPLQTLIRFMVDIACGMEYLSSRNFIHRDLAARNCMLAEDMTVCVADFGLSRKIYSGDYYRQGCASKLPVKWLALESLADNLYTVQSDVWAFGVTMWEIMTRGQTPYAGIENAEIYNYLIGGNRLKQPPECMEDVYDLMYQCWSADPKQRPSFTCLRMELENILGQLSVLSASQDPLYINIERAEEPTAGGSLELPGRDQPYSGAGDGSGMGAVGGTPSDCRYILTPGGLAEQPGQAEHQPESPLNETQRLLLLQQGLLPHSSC
Phospho-Axl, sequence (P30530 26-894): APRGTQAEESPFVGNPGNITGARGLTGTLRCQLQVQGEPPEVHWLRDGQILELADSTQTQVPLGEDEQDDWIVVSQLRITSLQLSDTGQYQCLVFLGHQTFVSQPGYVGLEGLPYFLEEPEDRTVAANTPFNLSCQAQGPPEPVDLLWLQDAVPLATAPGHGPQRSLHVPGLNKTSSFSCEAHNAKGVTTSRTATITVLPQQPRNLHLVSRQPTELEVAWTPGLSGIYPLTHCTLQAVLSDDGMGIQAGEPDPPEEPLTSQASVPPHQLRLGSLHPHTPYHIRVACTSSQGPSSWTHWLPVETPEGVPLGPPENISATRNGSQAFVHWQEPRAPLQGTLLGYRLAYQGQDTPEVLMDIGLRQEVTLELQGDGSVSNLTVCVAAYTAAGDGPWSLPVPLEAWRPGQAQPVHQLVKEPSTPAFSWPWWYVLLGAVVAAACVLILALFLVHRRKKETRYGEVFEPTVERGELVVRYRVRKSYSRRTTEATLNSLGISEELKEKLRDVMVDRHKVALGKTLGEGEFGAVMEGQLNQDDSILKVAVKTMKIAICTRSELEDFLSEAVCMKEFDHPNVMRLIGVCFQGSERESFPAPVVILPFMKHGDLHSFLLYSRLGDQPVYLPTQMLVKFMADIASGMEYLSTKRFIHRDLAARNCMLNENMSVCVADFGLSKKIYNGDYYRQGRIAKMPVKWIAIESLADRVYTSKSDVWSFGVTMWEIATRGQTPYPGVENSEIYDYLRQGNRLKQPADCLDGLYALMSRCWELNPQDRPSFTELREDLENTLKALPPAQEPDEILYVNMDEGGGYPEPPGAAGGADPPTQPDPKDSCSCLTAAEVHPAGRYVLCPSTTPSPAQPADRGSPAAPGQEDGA

`N#CCC1(c2cccc(-c3ncnc4[nH]ccc34)c2)Cc2ccccc2C1` [Example 36, {2-[3-(7H-Pyrrolo[2,3-d]pyrimidin-4-yl)phenyl]-2,3-dihydro-1H-inden-2-yl}acetonitrile] gave an IC50 (Tyro3) greater than 3000 nM.
Work on `CC(O)C1CCN(c2ccc3c(c2)CC(CN)(c2cccc(-c4ncnc5[nH]ccc45)c2)C3)C1` (stereo not shown) [Example 55, 1-(1-{2-(Aminomethyl)-2-[3-(7H-pyrrolo[2,3-d]pyrimidin-4-yl)phenyl]-2,3-dihydro-1H-inden-5-yl}pyrrolidin-3-yl)ethanol] yielded an IC50 (Phospho-Axl) greater than 3000 nM and an IC50 (Tyro3) greater than 3000 nM.
Work on `O=C(NCCC1(c2cccc(-c3ncnc4[nH]ccc34)c2)Cc2ccccc2C1)C1CC1` [Example 39, N-(2-{2-[3-(7H-Pyrrolo[2,3-d]pyrimidin-4-yl)phenyl]-2,3-dihydro-1H-inden-2-yl}ethyl)cyclopropanecarboxamide] yielded an IC50 (Phospho-Axl) of less than 500 nM and an IC50 (Tyro3) greater than 3000 nM.
With `NCC1(c2cccc(-c3ncnc4[nH]ccc34)c2)Cc2ccc(-c3ccc(F)cc3)cc2C1` (stereo not shown) [Example 71, 1-{5-(4-Fluorophenyl)-2-[3-(7H-pyrrolo[2,3-d]pyrimidin-4-yl)phenyl]-2,3-dihydro-1H-inden-2-yl}methanamine] the IC50 (c-Mer) was greater than 3000 nM.
`NCC1(c2cccc(-c3ncnc4[nH]ccc34)c2)Cc2ccc(N3CCC(O)C3)cc2C1` (stereo not shown) [Example 54, 1-{2-(Aminomethyl)-2-[3-(7H-pyrrolo[2,3-d]pyrimidin-4-yl)phenyl]-2,3-dihydro-1H-inden-5-yl}pyrrolidin-3-ol] was tested, and the IC50 (Tyro3) was greater than 3000 nM.
`COCCCNc1ccc2c(c1)CC(CN)(c1cccc(-c3ncnc4[nH]ccc34)c1)C2` (stereo not shown) [Example 66, 2-(Aminomethyl)-N-(3-methoxypropyl)-2-[3-(7H-pyrrolo[2,3-d]pyrimidin-4-yl)phenyl]indan-5-amine] was tested, and the IC50 (Tyro3) was greater than 3000 nM.
For `Cc1cc2c(-c3cccc(C4(CN)Cc5ccccc5C4)c3)ncnc2[nH]1` [Example 93, 1-{2-[3-(6-Methyl-7H-pyrrolo[2,3-d]pyrimidin-4-yl)phenyl]-2,3-dihydro-1H-inden-2-yl}methanamine], the IC50 (Tyro3) was greater than 3000 nM.
Work on `CC(C)C(=O)NCCC1(c2cccc(-c3ncnc4[nH]ccc34)c2)Cc2ccccc2C1` [Example 38, 2-Methyl-N-(2-{2-[3-(7H-pyrrolo[2,3-d]pyrimidin-4-yl)phenyl]-2,3-dihydro-1H-inden-2-yl}ethyl)propanamide] yielded an IC50 (Tyro3) greater than 3000 nM.
For `N#CC1CCN(c2ccc3c(c2)CC(CN)(c2cccc(-c4ncnc5[nH]ccc45)c2)C3)CC1` (stereo not shown) [Example 59, 1-{2-(Aminomethyl)-2-[3-(7H-pyrrolo[2,3-d]pyrimidin-4-yl)phenyl]-2,3-dihydro-1H-inden-5-yl}piperidine-4-carbonitrile], the IC50 (c-Mer) was greater than 3000 nM.
`NCC1(c2cccc(-c3ncnc4[nH]ccc34)c2)Cc2ccc(-c3ccc4nccn4c3)cc2C1` (stereo not shown) [Example 73, 1-{5-Imidazo[1,2-a]pyridin-6-yl-2-[3-(7H-pyrrolo[2,3-d]pyrimidin-4-yl)phenyl]-2,3-dihydro-1H-inden-2-yl}methanamine] showed an IC50 (Tyro3) greater than 3000 nM.
`O=C(NCC1(c2cccc(-c3ncnc4[nH]ccc34)c2)Cc2ccccc2C1)N1CCOCC1` [Example 35, N-({2-[3-(7H-Pyrrolo[2,3-d]pyrimidin-4-yl)phenyl]-2,3-dihydro-1H-inden-2-yl}methyl)morpholine-4-carboxamide] was tested, and the IC50 (Tyro3) was greater than 3000 nM and the IC50 (c-Mer) was greater than 3000 nM.
`NCC1(c2cccc(-c3ncnc4[nH]ccc34)c2)Cc2ccc(CN3CC(F)C3)cc2C1` (stereo not shown) [Example 47, (2-(3-(7H-Pyrrolo[2,3-d]pyrimidin-4-yl)phenyl)-5-((3-fluoroazetidin-1-yl)methyl)-2,3-dihydro-1H-inden-2-yl)methanamine] showed an IC50 (c-Mer) greater than 3000 nM.
Work on `NCC1(c2cccc(-c3ncnc4[nH]ccc34)c2)Cc2ccc(CNC3CCC3)cc2C1` (stereo not shown) [Example 41, N-((2-(3-(7H-Pyrrolo[2,3-d]pyrimidin-4-yl)phenyl)-2-(aminomethyl)-2,3-dihydro-1H-inden-5-yl)methyl)cyclobutanamine] yielded an IC50 (Tyro3) greater than 3000 nM and an IC50 (c-Mer) greater than 3000 nM.
In the case of `NCC1(c2cccc(-c3ncnc4[nH]ccc34)c2)Cc2ccc(NC3CCOCC3)cc2C1` (stereo not shown) [Example 60, N-{2-(Aminomethyl)-2-[3-(7H-pyrrolo[2,3-d]pyrimidin-4-yl)phenyl]-2,3-dihydro-1H-inden-5-yl}tetrahydro-2H-pyran-4-amine], the IC50 (c-Mer) is reported as greater than 3000 nM.
Molecule `NCC1(c2cccc(-c3ncnc4[nH]ccc34)c2)Cc2ccc(N3CCCC3)cc2C1` (stereo not shown) [Example 61, 1-{5-Pyrrolidin-1-yl-2-[3-(7H-pyrrolo[2,3-d]pyrimidin-4-yl)phenyl]-2,3-dihydro-1H-inden-2-yl}methanamine] has an IC50 (Tyro3) greater than 3000 nM.
In the case of `NCC1(c2cccc(-c3ncnc4[nH]ccc34)c2)Cc2ccc(-c3cccnc3)cc2C1` (stereo not shown) [Example 77, (2-(3-(7H-Pyrrolo[2,3-d]pyrimidin-4-yl)phenyl)-5-(pyridin-3-yl)-2,3-dihydro-1H-inden-2-yl)methanamine], the IC50 (Tyro3) is reported as less than 500 nM and the IC50 (c-Mer) is reported as greater than 3000 nM.
Molecule `NCC1(c2cccc(-c3ncnc4[nH]ccc34)c2)Cc2ccc(CNC3CC3)cc2C1` (stereo not shown) [Example 40, N-((2-(3-(7H-Pyrrolo[2,3-d]pyrimidin-4-yl)phenyl)-2-(aminomethyl)-2,3-dihydro-1H-inden-5-yl)methyl)cyclopropanamine] has an IC50 (Tyro3) greater than 3000 nM and an IC50 (c-Mer) greater than 3000 nM.
`NCC1(c2cccc(-c3ncnc4[nH]ccc34)c2)Cc2ccc(-c3cccc(F)c3)cc2C1` (stereo not shown) [Example 70, 1-{5-(3-Fluorophenyl)-2-[3-(7H-pyrrolo[2,3-d]pyrimidin-4-yl)phenyl]-2,3-dihydro-1H-inden-2-yl}methanamine] showed an IC50 (c-Mer) greater than 3000 nM.
With `NCC1(c2cccc(-c3ncnc4[nH]ccc34)c2)Cc2ccc(CN3CC[C@H](C(N)=O)C3)cc2C1` (stereo partly drawn) [Example 44, (3S)-1-((2-(3-(7H-Pyrrolo[2,3-d]pyrimidin-4-yl)phenyl)-2-(aminomethyl)-2,3-dihydro-1H-inden-5-yl)methyl)pyrrolidine-3-carboxamide] the IC50 (c-Mer) was greater than 3000 nM.
`NCC1(c2cccc(-c3ncnc4[nH]ccc34)c2)Cc2ccc(N3CCCC(O)C3)cc2C1` (stereo not shown) [Example 58, 1-{2-(Aminomethyl)-2-[3-(7H-pyrrolo[2,3-d]pyrimidin-4-yl)phenyl]-2,3-dihydro-1H-inden-5-yl}piperidin-3-ol] showed an IC50 (Tyro3) of less than 500 nM and an IC50 (c-Mer) greater than 3000 nM.
Work on `COCC1(Nc2ccc3c(c2)CC(CN)(c2cccc(-c4ncnc5[nH]ccc45)c2)C3)CC1` (stereo not shown) [Example 67, 2-(Aminomethyl)-N-[1-(methoxymethyl)cyclopropyl]-2-[3-(7H-pyrrolo[2,3-d]pyrimidin-4-yl)phenyl]indan-5-amine] yielded an IC50 (Tyro3) greater than 3000 nM.
`NCC1(c2cccc(-c3ncnc4[nH]ccc34)c2)Cc2ccc(CN3CCC3)cc2C1` (stereo not shown) [Example 46, (2-(3-(7H-Pyrrolo[2,3-d]pyrimidin-4-yl)phenyl)-5-(azetidin-1-ylmethyl)-2,3-dihydro-1H-inden-2-yl)methanamine] was tested, and the IC50 (c-Mer) was greater than 3000 nM.
`NCC1(c2cccc(-c3ncnc4[nH]ccc34)c2)Cc2ccc(-c3ccncc3)cc2C1` (stereo not shown) [Example 78, (2-(3-(7H-Pyrrolo[2,3-d]pyrimidin-4-yl)phenyl)-5-(pyridin-4-yl)-2,3-dihydro-1H-inden-2-yl)methanamine] gave an IC50 (c-Mer) greater than 3000 nM.
`N#Cc1ccc2c(c1)CC(CNC(=O)C1CC1)(c1cccc(-c3ncnc4[nH]ccc34)c1)C2` (stereo not shown) [Example 50, N-({5-Cyano-2-[3-(7H-pyrrolo[2,3-d]pyrimidin-4-yl)phenyl]-2,3-dihydro-1H-inden-2-yl}methyl)cyclopropanecarboxamide] gave an IC50 (Tyro3) greater than 3000 nM.
